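All cell lines were grown in 96-well plates and treated with compound for 48 hours. Here, GI50 denotes the concentration required for 50% inhibition of growth. The concentration for full growth arrest is given as TGI.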
tested on: NCI-H522 lung; assay: growth of human tumour cells (NCI), 48 h

Structure (SMILES) | GI50 [µM] | TGI [µM]
COc1ccc(-c2nn(-c3cccc(Cl)c3)cc2-c2nc(N)[nH]c(=O)c2C#N)cc1 | 3.11 | 9.8
O=C(CCN1CCOCC1)Nc1cccc(-n2cc(-c3ccncc3)c(-c3ccc(Cl)c(O)c3)n2)c1 | 0.448 | 5.4
C=C(C)[C@@H]1CC[C@]2(C)[C@H](CC[C@@H]3[C@@H]([C@@](C)(O)CCC=C(C)C)CC[C@]32C)[C@@]1(C)CCC(=O)O | 20.3 | 63.5
Cn1cc(S(=O)(=O)N2CCC3=Cc4c(cnn4-c4ccc(F)cc4)C[C@]3(C(=O)c3cc(C(F)(F)F)ccn3)C2)cn1 | > 100 | > 100
c1ccc(NCCSc2nc3ccccc3s2)cc1 |  | > 100
Oc1ccc(Oc2cnc3ccccc3n2)cc1 | > 100 | > 100
Cc1ccc2occ/c(=N\Nc3ccccc3)c2c1 |  | > 100
CC(=O)NC1CONC1=O (centres undefined) |  | > 100
Oc1ccc(N=Nc2nccs2)c(O)c1 | 3.5 | 13.6
COc1cc(/C=C/C(=O)Oc2ccccc2)ccc1C(=O)O/C=C/c1ccccc1 |  | > 100
COc1ccc(-c2noc(N)c2-c2cc(OC)c3c(c2)OCO3)cc1 | 1.24 | 
CC(Cl)CN1c2ccccc2Sc2ccc(Cl)cc21 (centres undefined) |  | > 10
NCCCn1c2c(c3ccccc3c1=O)C(=O)c1ccccc1-2 | 0.564 | 13.4
O=C1c2ccccc2C(=O)c2c(NCCN=Cc3ccccc3O)cccc21 | 6.94 | > 25.6
Oc1ccc(/C=C/c2cc(O)cc3c2C(c2cc(O)cc(O)c2)C(c2ccc(O)c(O)c2)O3)cc1 (centres undefined) |  | 83
CC1(C)N=C(N)N=C(N)N1c1cccc(OCCOc2cccc([N+](=O)[O-])c2)c1 | 1.19 | 62.5
COc1ccc(/C=C/c2cnccn2)cc1OC |  | > 10
O=C(NC1CCCCC1)c1ccc(Nc2ncnc3c2cnn3-c2ccccc2)cc1 | 6.4 | > 100
C=CCn1c(SCC(=O)Nc2ccc(C(=O)/C=C/c3cc(OC)c(OC)c(OC)c3)cc2)nnc1-c1ccc(OC)cc1 | 0.689 | 3.37
C=C1C(O)C2C(=C(C)C13CC3)C(=O)C(C)(C)C2OC (centres undefined) | 75.4 | > 100
COc1cc(C(=O)O[C@H](C(N)=O)[C@]2(C)CO2)c2cccc(C)c2c1 | < 0.0342 | 0.638
NCCCOc1cc(Cl)ccc1NC(=O)c1cc2ccccc2cc1OCCCN | 0.575 | 2.34

tested on: ACHN renal; assay: growth of human tumour cells (NCI), 48 h

Structure (SMILES) | GI50 [µM] | TGI [µM]
COc1ccc(-c2nn(-c3cccc(Cl)c3)cc2-c2nc(N)[nH]c(=O)c2C#N)cc1 | 9.92 | > 100
O=C(CCN1CCOCC1)Nc1cccc(-n2cc(-c3ccncc3)c(-c3ccc(Cl)c(O)c3)n2)c1 | 2.5 | 12.5
C=C(C)[C@@H]1CC[C@]2(C)[C@H](CC[C@@H]3[C@@H]([C@@](C)(O)CCC=C(C)C)CC[C@]32C)[C@@]1(C)CCC(=O)O | 21.7 | 54.3
Cn1cc(S(=O)(=O)N2CCC3=Cc4c(cnn4-c4ccc(F)cc4)C[C@]3(C(=O)c3cc(C(F)(F)F)ccn3)C2)cn1 | > 100 | > 100
c1ccc(NCCSc2nc3ccccc3s2)cc1 |  | > 100
Oc1ccc(Oc2cnc3ccccc3n2)cc1 | 76.6 | > 100
Cc1ccc2occ/c(=N\Nc3ccccc3)c2c1 |  | > 100
CC(=O)NC1CONC1=O (centres undefined) |  | > 100
Oc1ccc(N=Nc2nccs2)c(O)c1 | 2.96 | 33.8
COc1cc(/C=C/C(=O)Oc2ccccc2)ccc1C(=O)O/C=C/c1ccccc1 |  | > 100
COc1ccc(-c2noc(N)c2-c2cc(OC)c3c(c2)OCO3)cc1 | 6.88 | > 100
CC(Cl)CN1c2ccccc2Sc2ccc(Cl)cc21 (centres undefined) |  | > 10
NCCCn1c2c(c3ccccc3c1=O)C(=O)c1ccccc1-2 | < 0.0359 | 
O=C1c2ccccc2C(=O)c2c(NCCN=Cc3ccccc3O)cccc21 | 3.4 | 16.3
Oc1ccc(/C=C/c2cc(O)cc3c2C(c2cc(O)cc(O)c2)C(c2ccc(O)c(O)c2)O3)cc1 (centres undefined) |  | 33.8
CC1(C)N=C(N)N=C(N)N1c1cccc(OCCOc2cccc([N+](=O)[O-])c2)c1 | > 100 | > 100
COc1ccc(/C=C/c2cnccn2)cc1OC |  | > 10
O=C(NC1CCCCC1)c1ccc(Nc2ncnc3c2cnn3-c2ccccc2)cc1 | 3.32 | 11
C=C1C(O)C2C(=C(C)C13CC3)C(=O)C(C)(C)C2OC (centres undefined) | > 100 | > 100
NCCCOc1cc(Cl)ccc1NC(=O)c1cc2ccccc2cc1OCCCN | 1.48 | 2.88

tested on: RXF 393 renal; assay: growth of human tumour cells (NCI), 48 h

Structure (SMILES) | GI50 [µM] | TGI [µM]
COc1ccc(-c2nn(-c3cccc(Cl)c3)cc2-c2nc(N)[nH]c(=O)c2C#N)cc1 | 4.51 | 22.4
O=C(CCN1CCOCC1)Nc1cccc(-n2cc(-c3ccncc3)c(-c3ccc(Cl)c(O)c3)n2)c1 | 1.39 | 4.66
C=C(C)[C@@H]1CC[C@]2(C)[C@H](CC[C@@H]3[C@@H]([C@@](C)(O)CCC=C(C)C)CC[C@]32C)[C@@]1(C)CCC(=O)O | 14.3 | 28.6
Cn1cc(S(=O)(=O)N2CCC3=Cc4c(cnn4-c4ccc(F)cc4)C[C@]3(C(=O)c3cc(C(F)(F)F)ccn3)C2)cn1 | 5.19 | > 100
c1ccc(NCCSc2nc3ccccc3s2)cc1 |  | > 100
Oc1ccc(Oc2cnc3ccccc3n2)cc1 | 34.3 | > 100
Cc1ccc2occ/c(=N\Nc3ccccc3)c2c1 |  | 58.9
CC(=O)NC1CONC1=O (centres undefined) |  | > 100
Oc1ccc(N=Nc2nccs2)c(O)c1 | 5.65 | 30.1
COc1cc(/C=C/C(=O)Oc2ccccc2)ccc1C(=O)O/C=C/c1ccccc1 |  | > 100
COc1ccc(-c2noc(N)c2-c2cc(OC)c3c(c2)OCO3)cc1 | 2.6 | 15
CC(Cl)CN1c2ccccc2Sc2ccc(Cl)cc21 (centres undefined) |  | > 10
NCCCn1c2c(c3ccccc3c1=O)C(=O)c1ccccc1-2 | 1.22 | 6.68
O=C1c2ccccc2C(=O)c2c(NCCN=Cc3ccccc3O)cccc21 | 2.18 | 6.94
Oc1ccc(/C=C/c2cc(O)cc3c2C(c2cc(O)cc(O)c2)C(c2ccc(O)c(O)c2)O3)cc1 (centres undefined) |  | > 100
CC1(C)N=C(N)N=C(N)N1c1cccc(OCCOc2cccc([N+](=O)[O-])c2)c1 | 35.2 | > 100
COc1ccc(/C=C/c2cnccn2)cc1OC |  | > 10
O=C(NC1CCCCC1)c1ccc(Nc2ncnc3c2cnn3-c2ccccc2)cc1 | 2.43 | 9.33
C=CCn1c(SCC(=O)Nc2ccc(C(=O)/C=C/c3cc(OC)c(OC)c(OC)c3)cc2)nnc1-c1ccc(OC)cc1 | 0.377 | 1.41
C=C1C(O)C2C(=C(C)C13CC3)C(=O)C(C)(C)C2OC (centres undefined) | > 100 | > 100
COc1cc(C(=O)O[C@H](C(N)=O)[C@]2(C)CO2)c2cccc(C)c2c1 | 0.148 | 1.1
NCCCOc1cc(Cl)ccc1NC(=O)c1cc2ccccc2cc1OCCCN | 1.24 | 2.54

tested on: OVCAR-3 ovarian; assay: growth of human tumour cells (NCI), 48 h

Structure (SMILES) | GI50 [µM] | TGI [µM]
COc1ccc(-c2nn(-c3cccc(Cl)c3)cc2-c2nc(N)[nH]c(=O)c2C#N)cc1 | 3.38 | 10
O=C(CCN1CCOCC1)Nc1cccc(-n2cc(-c3ccncc3)c(-c3ccc(Cl)c(O)c3)n2)c1 | 0.644 | 7.16
C=C(C)[C@@H]1CC[C@]2(C)[C@H](CC[C@@H]3[C@@H]([C@@](C)(O)CCC=C(C)C)CC[C@]32C)[C@@]1(C)CCC(=O)O | 15.9 | 29.8
Cn1cc(S(=O)(=O)N2CCC3=Cc4c(cnn4-c4ccc(F)cc4)C[C@]3(C(=O)c3cc(C(F)(F)F)ccn3)C2)cn1 | > 100 | > 100
c1ccc(NCCSc2nc3ccccc3s2)cc1 |  | > 100
Oc1ccc(Oc2cnc3ccccc3n2)cc1 | > 100 | > 100
Cc1ccc2occ/c(=N\Nc3ccccc3)c2c1 |  | > 100
CC(=O)NC1CONC1=O (centres undefined) |  | > 100
Oc1ccc(N=Nc2nccs2)c(O)c1 | 2.4 | 7.37
COc1cc(/C=C/C(=O)Oc2ccccc2)ccc1C(=O)O/C=C/c1ccccc1 |  | > 31.6
COc1ccc(-c2noc(N)c2-c2cc(OC)c3c(c2)OCO3)cc1 | 2.53 | 12.9
CC(Cl)CN1c2ccccc2Sc2ccc(Cl)cc21 (centres undefined) |  | > 10
NCCCn1c2c(c3ccccc3c1=O)C(=O)c1ccccc1-2 | 0.721 | 5.25
O=C1c2ccccc2C(=O)c2c(NCCN=Cc3ccccc3O)cccc21 | 2.38 | 7.92
Oc1ccc(/C=C/c2cc(O)cc3c2C(c2cc(O)cc(O)c2)C(c2ccc(O)c(O)c2)O3)cc1 (centres undefined) |  | 56.4
CC1(C)N=C(N)N=C(N)N1c1cccc(OCCOc2cccc([N+](=O)[O-])c2)c1 | 5.13 | > 100
COc1ccc(/C=C/c2cnccn2)cc1OC |  | > 10
O=C(NC1CCCCC1)c1ccc(Nc2ncnc3c2cnn3-c2ccccc2)cc1 | 14.3 | > 100
C=CCn1c(SCC(=O)Nc2ccc(C(=O)/C=C/c3cc(OC)c(OC)c(OC)c3)cc2)nnc1-c1ccc(OC)cc1 | 0.343 | 1.02
C=C1C(O)C2C(=C(C)C13CC3)C(=O)C(C)(C)C2OC (centres undefined) | > 100 | > 100
COc1cc(C(=O)O[C@H](C(N)=O)[C@]2(C)CO2)c2cccc(C)c2c1 | < 0.0317 | 8.21
NCCCOc1cc(Cl)ccc1NC(=O)c1cc2ccccc2cc1OCCCN | 1.32 | 2.65

tested on: MDA-MB-231 breast; assay: growth of human tumour cells (NCI), 48 h

Structure (SMILES) | GI50 [µM] | TGI [µM]
COc1ccc(-c2nn(-c3cccc(Cl)c3)cc2-c2nc(N)[nH]c(=O)c2C#N)cc1 | 3.39 | 53.3
O=C(CCN1CCOCC1)Nc1cccc(-n2cc(-c3ccncc3)c(-c3ccc(Cl)c(O)c3)n2)c1 | 2.6 | 6.84
C=C(C)[C@@H]1CC[C@]2(C)[C@H](CC[C@@H]3[C@@H]([C@@](C)(O)CCC=C(C)C)CC[C@]32C)[C@@]1(C)CCC(=O)O | 16.6 | 33.1
Cn1cc(S(=O)(=O)N2CCC3=Cc4c(cnn4-c4ccc(F)cc4)C[C@]3(C(=O)c3cc(C(F)(F)F)ccn3)C2)cn1 | > 100 | > 100
c1ccc(NCCSc2nc3ccccc3s2)cc1 |  | > 100
Oc1ccc(Oc2cnc3ccccc3n2)cc1 | > 100 | > 100
Cc1ccc2occ/c(=N\Nc3ccccc3)c2c1 |  | > 100
CC(=O)NC1CONC1=O (centres undefined) |  | > 100
Oc1ccc(N=Nc2nccs2)c(O)c1 | 8.77 | > 100
COc1cc(/C=C/C(=O)Oc2ccccc2)ccc1C(=O)O/C=C/c1ccccc1 |  | > 100
COc1ccc(-c2noc(N)c2-c2cc(OC)c3c(c2)OCO3)cc1 | 2.76 | 60.9
CC(Cl)CN1c2ccccc2Sc2ccc(Cl)cc21 (centres undefined) |  | > 10
NCCCn1c2c(c3ccccc3c1=O)C(=O)c1ccccc1-2 | 0.177 | 0.736
O=C1c2ccccc2C(=O)c2c(NCCN=Cc3ccccc3O)cccc21 | 7.91 | > 80.6
Oc1ccc(/C=C/c2cc(O)cc3c2C(c2cc(O)cc(O)c2)C(c2ccc(O)c(O)c2)O3)cc1 (centres undefined) |  | 68
CC1(C)N=C(N)N=C(N)N1c1cccc(OCCOc2cccc([N+](=O)[O-])c2)c1 | 10.2 | > 100
COc1ccc(/C=C/c2cnccn2)cc1OC |  | > 10
O=C(NC1CCCCC1)c1ccc(Nc2ncnc3c2cnn3-c2ccccc2)cc1 | 5.09 | 21.9
C=CCn1c(SCC(=O)Nc2ccc(C(=O)/C=C/c3cc(OC)c(OC)c(OC)c3)cc2)nnc1-c1ccc(OC)cc1 | 0.888 | 29.9
C=C1C(O)C2C(=C(C)C13CC3)C(=O)C(C)(C)C2OC (centres undefined) | 53.4 | > 100
COc1cc(C(=O)O[C@H](C(N)=O)[C@]2(C)CO2)c2cccc(C)c2c1 | 0.016 | 1.29
NCCCOc1cc(Cl)ccc1NC(=O)c1cc2ccccc2cc1OCCCN | 1.19 | 2.69
